The results in this text go back to US20120184583A1, “MODULATORS OF ATP-BINDING CASSETTE TRANSPORTERS” (VERTEX PHARMACEUTICALS INCORPORATED, priority 2003, published 2012).

T1 sequence (P13569 with tags, fused parts or gaps DEL508-508): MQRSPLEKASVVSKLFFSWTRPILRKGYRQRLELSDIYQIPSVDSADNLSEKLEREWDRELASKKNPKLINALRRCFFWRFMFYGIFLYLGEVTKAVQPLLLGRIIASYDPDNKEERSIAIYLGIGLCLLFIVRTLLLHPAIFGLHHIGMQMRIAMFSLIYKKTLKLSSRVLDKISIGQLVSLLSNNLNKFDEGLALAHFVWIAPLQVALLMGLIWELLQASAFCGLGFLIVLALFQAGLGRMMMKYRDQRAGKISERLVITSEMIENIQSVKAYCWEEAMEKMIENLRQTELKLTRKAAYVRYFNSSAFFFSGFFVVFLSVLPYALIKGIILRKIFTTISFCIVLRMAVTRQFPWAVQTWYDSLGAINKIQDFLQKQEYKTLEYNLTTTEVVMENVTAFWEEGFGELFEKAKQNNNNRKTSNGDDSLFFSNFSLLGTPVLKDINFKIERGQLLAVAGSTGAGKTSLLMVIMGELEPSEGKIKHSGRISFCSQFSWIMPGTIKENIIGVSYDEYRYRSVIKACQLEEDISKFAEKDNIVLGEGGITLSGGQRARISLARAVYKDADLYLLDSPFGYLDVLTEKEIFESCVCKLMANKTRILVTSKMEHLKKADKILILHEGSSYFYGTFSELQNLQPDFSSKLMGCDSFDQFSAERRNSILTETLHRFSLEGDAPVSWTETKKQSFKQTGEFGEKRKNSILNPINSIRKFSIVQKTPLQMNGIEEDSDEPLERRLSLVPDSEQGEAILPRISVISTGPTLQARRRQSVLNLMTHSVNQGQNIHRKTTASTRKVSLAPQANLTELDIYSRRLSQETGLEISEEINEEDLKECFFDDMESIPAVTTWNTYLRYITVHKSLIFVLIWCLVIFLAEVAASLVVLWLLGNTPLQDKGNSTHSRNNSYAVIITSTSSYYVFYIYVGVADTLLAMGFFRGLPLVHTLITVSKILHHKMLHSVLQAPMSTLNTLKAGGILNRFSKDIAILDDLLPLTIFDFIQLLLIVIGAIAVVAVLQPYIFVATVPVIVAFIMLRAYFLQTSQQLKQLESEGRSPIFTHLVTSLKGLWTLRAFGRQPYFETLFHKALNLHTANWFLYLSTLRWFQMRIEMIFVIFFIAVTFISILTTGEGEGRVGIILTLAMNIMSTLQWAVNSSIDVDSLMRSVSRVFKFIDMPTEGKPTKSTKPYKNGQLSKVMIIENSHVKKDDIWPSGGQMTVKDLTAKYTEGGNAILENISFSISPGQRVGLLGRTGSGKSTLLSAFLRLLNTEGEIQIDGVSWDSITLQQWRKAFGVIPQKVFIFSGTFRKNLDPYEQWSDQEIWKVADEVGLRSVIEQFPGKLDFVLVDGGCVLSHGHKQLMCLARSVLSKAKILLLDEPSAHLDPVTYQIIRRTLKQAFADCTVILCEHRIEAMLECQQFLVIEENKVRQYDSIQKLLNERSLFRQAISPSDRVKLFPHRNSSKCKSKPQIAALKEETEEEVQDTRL

This test addresses T1, ΔF508-CFTR stably expressed in NIH3T3 cells (Homo sapiens, UniProt P13569, DEL508-508).
T1 construct: expressed in transfected cells
Nature of the test: Membrane potential optical (FRET/VIPR) assay for ΔF508-CFTR potentiation. In kind it is cell-based. The following applies: NIH3T3, read-out: % Efficacy (relative modulating efficacy in comparison with genistein), normalized to peak genistein response. From the text: Membrane potential optical methods for assaying ΔF508-CFTR potentiation properties of compounds.
These voltage sensitive assays are based on the change in fluorescence resonant energy transfer (FRET) between the membrane-soluble, voltage-sensitive dye, DiSBAC2(3), and a fluorescent phospholipid, CC2-DMPE, which is attached to the outer leaflet of the plasma membrane and acts as a FRET donor. Changes in membrane potential (Vm) cause the negatively charged DiSBAC2(3) to redistribute across the plasma membrane and the amount of energy transfer from CC2-DMPE changes accordingly. The changes in fluorescence emission were monitored using VIPR™ II, which is an integrated liquid handler and fluorescent detector designed to conduct cell-based screens in 96- or 384-well microtiter plates.
To identify potentiators of ΔF508-CFTR, a double-addition HTS assay format was developed (FIG. 1A). During the first addition, a Cl^−-free medium with or without test compound was added to each well. After 22 sec, a second addition of Cl^−-free medium containing 2-10 μM forskolin was added to activate ΔF508-CFTR. The extracellular Cl^− concentration following both additions was 28 mM, which promoted Cl^− efflux in response to ΔF508-CFTR activation and the resulting membrane depolarization was optically monitored using the FRET-based voltage-sensor dyes. The double-addition format has several advantages. First, it enables separation of compounds that act independently of forskolin-activated ΔF508-CFTR. Second, it allows compounds that act from the cytoplasmic surface of the channel to cross the plasma membrane and take effect. Lastly, fluorescent changes that arise from test compound addition alone can be identified.
High-throughput assay format for identifying potentiators of ΔF508-CFTR stably expressed in NIH3T3 cells.
FIG. 1A: Double-addition assay format in which Cl^−-free medium was added with or without the test compound prior to forskolin addition. The cells were incubated at 27° C. for 16-24 hr prior to use.
• Bath Solution #1: (in mM)NaCl 160, KCl 4.5, CaCl2 2, MgCl2 1, HEPES 10, pH 7.4 with NaOH. • Chloride-free bath solution: Chloride salts in Bath Solution #1 are substituted with gluconate salts. • CC2-DMPE: Prepared as a 10 mM stock solution in DMSO and stored at −20° C. • DiSBAC2(3): Prepared as a 10 mM stock in DMSO and stored at −20° C.
NIH3T3 mouse fibroblasts stably expressing ΔF508-CFTR are used for optical measurements of membrane potential. The cells are maintained at 37° C. in 5% CO2 and 90% humidity in Dulbecco's modified Eagle's medium supplemented with 2 mM glutamine, 10% fetal bovine serum, 1×NEAA, β-ME, 1×pen/strep, and 25 mM HEPES in 175 cm^2 culture flasks. For all optical assays, the cells were seeded at 30,000/well in 384-well matrigel-coated plates and cultured for 2 hrs at 37° C. before culturing at 27° C. for 24 hrs.
Turning to `CCSc1ncccc1-c1cc(-c2ccccc2)n[nH]1` [I-3], the Emax lay in the range of 35 to 75%.

Turning to `Fc1ccccc1-c1cc(-c2ccccc2)n[nH]1` [I-4], the Emax fell in the range of 35 to 75%. As for `CCCSc1ncccc1-c1cc(-c2ccccc2)n[nH]1` [I-5], the Emax lay in the range of 35 to 75%. The value for `Fc1ccccc1-c1cc(-c2ccccc2F)[nH]n1` [I-6] was 35 to 75%. As for `Fc1ccccc1-c1cc(-c2ccccc2Cl)[nH]n1` [I-7], the Emax was 35 to 75%. With `Fc1ccccc1-c1cc(-c2cccc(Cl)c2)[nH]n1` [I-9], the Emax lay within 35 to 75%.

`Fc1ccccc1-c1cc(-c2ccc3c(c2)OC(F)(F)O3)[nH]n1` [I-10]: the Emax is 35 to 75%. `c1ccc(-c2cc(-c3cccc4c3OCO4)[nH]n2)cc1` [I-15]: the Emax lay in the range of 35 to 75%. Regarding `FC(F)(F)Oc1ccc(-c2cc(-c3ccccc3)n[nH]2)cc1` [I-16], the Emax is 35 to 75%. For `Fc1ccccc1-c1cc(-c2ccc(OC(F)(F)F)cc2)[nH]n1` [I-17], the Emax is 35 to 75%.

With `Fc1ccccc1-c1cc(-c2cccc(OC(F)(F)F)c2)[nH]n1` [I-18], the Emax fell in the range of 35 to 75%. On to `Cc1cccc(-c2cc(-c3ccccc3)n[nH]2)c1` [I-19], for which the Emax fell in the range of 35 to 75%. Regarding `COc1ccc(-c2cc(-c3ccccc3O)n[nH]2)cc1OC` [IA-1], the Emax lay within 35 to 75%. As for `COc1ccc(O)c(-c2cc(-c3ccc(F)cc3)[nH]n2)c1` [IA-2], the Emax lay within 35 to 75%. Turning to `COc1cccc(O)c1-c1cc(-c2ccccc2)n[nH]1` [IA-3], the Emax fell in the range of 35 to 75%. `Cc1ccc(O)c(-c2cc(-c3ccccc3[N+](=O)[O-])[nH]n2)c1` [IA-5]: the Emax is more than 75%. As to `Oc1ccc(F)cc1-c1cc(-c2ccccc2C(F)(F)F)[nH]n1` [IA-6], the Emax was more than 75%. Take `Cc1ccc(O)c(-c2cc(-c3ccc(-c4cccc(C(F)(F)F)c4)o3)n[nH]2)c1` [IA-7]: the Emax is 35 to 75%. `Oc1ccccc1-c1cc(-c2ccc(F)cc2)[nH]n1` [IA-8]: the Emax fell in the range of 35 to 75%.

For the compound `Cc1ccc(O)c(-c2cc(-c3ccc(OCc4ccccc4)cc3)n[nH]2)c1` [IA-10], the Emax lay in the range of 35 to 75%. In the case of `COc1ccc(-c2cc(-c3ccccc3O)n[nH]2)cc1` [IA-11], the Emax is 35 to 75%. Next, `CCCc1ccc(O)c(-c2cc(-c3ccccc3)[nH]n2)c1` [IA-14]: more than 75%; `COc1ccc(O)c(-c2cc(-c3ccccc3C(F)(F)F)n[nH]2)c1` [IA-16]: 35 to 75%. As to `Cc1ccc(O)c(-c2cc(-c3ccc(C(F)(F)F)c(C)c3)n[nH]2)c1` [IA-17], the Emax was 35 to 75%. With `COc1ccc(O)c(-c2cc(-c3ccccc3)[nH]n2)c1` [IA-18], the Emax was in the range of 35 to 75%. With `Oc1ccc(Cl)cc1-c1cc(-c2ccccc2)[nH]n1` [IA-19], the Emax lay within 35 to 75%. Next, `O=[N+]([O-])c1ccccc1-c1cc(-c2cc(F)ccc2O)[nH]n1` [IA-20]: more than 75%. Turning to `Oc1ccc(F)cc1-c1cc(-c2ccccc2)n[nH]1` [IA-21], the Emax lay in the range of 35 to 75%. For `COc1ccc(-c2cc(-c3cc(C)ccc3O)n[nH]2)cc1` [IA-22], the Emax lay in the range of 35 to 75%. `Cc1ccccc1-c1cc(-c2ccccc2O)n[nH]1` [IA-24]: the Emax is 35 to 75%. Next, `Cc1ccc(O)c(-c2cc(-c3ccc4c(c3)OCO4)n[nH]2)c1` [IA-25]: 35 to 75%. In the case of `CC(C)c1ccc(O)c(-c2cc(-c3ccccc3)[nH]n2)c1` [IA-26], the Emax is more than 75%. Next, `Cc1ccc(O)c(-c2cc(-c3cccnc3)n[nH]2)c1` [IA-27, 4-Methyl-2-(5-pyridin-3-yl-1H-pyrazol-3-yl)phenol]: 35 to 75%; `Cc1ccc(O)c(-c2cc(-c3cccs3)n[nH]2)c1` [IA-28]: more than 75%. Take `Cc1ccc(O)c(-c2cc(-c3ccccc3-c3ccncc3)n[nH]2)c1` [IA-29]: the Emax fell in the range of 35 to 75%.

As to `Cc1ccc(O)c(-c2cc(-c3ccccc3C#N)n[nH]2)c1` [IA-30], the Emax was 35 to 75%. Consider `Oc1ccc(-c2cc(-c3ccccc3O)[nH]n2)cc1` [IA-33], for which the Emax was 35 to 75%. As to `Cc1ccc(O)c(-c2cc(-c3ccccc3O)n[nH]2)c1` [IA-34], the Emax was less than 35%. Turning to `Cc1ccc(O)c(-c2cc(-c3ccc(Br)cc3)[nH]n2)c1` [IA-35], the Emax is more than 75%. `Cc1cc(O)c(-c2cc(-c3ccccc3)n[nH]2)cc1C` [IA-36]: the Emax lay in the range of 35 to 75%. Next, `CSc1ncccc1-c1cc(-c2ccccc2O)n[nH]1` [IA-37]: 35 to 75%; `COc1cccc(-c2n[nH]c(-c3ccccc3O)c2OC)c1` [IA-38]: 35 to 75%. Next, `CC(=O)Nc1cccc(-c2cc(-c3cc(C)ccc3O)[nH]n2)c1` [IA-40]: 35 to 75%. Regarding `Cc1ccc(O)c(-c2cc(-c3ccccc3C(F)(F)F)n[nH]2)c1` [IA-41], the Emax is 35 to 75%. Next, `Cc1ccc(O)c(-c2cc(-c3cc(C(F)(F)F)oc3C)n[nH]2)c1` [IA-42]: more than 75%; `Oc1cccc(-c2cc(-c3ccccc3O)[nH]n2)c1` [IA-43]: more than 75%.

For `Cc1ccc(O)c(-c2cc(-c3ccc(F)c(F)c3)n[nH]2)c1` [IA-44], the Emax is 35 to 75%.

For the compound `Cc1ccc(O)c(-c2cc(-c3ccccc3OC(F)(F)F)n[nH]2)c1` [IA-45], the Emax is more than 75%.

With `Cc1ccc(O)c(-c2cc(-c3ccccc3Cl)[nH]n2)c1` [IA-48], the Emax is less than 35%.

With `Cc1ccc(O)c(-c2cc(-c3cc(C(C)(C)C)oc3C)n[nH]2)c1` [IA-50], the Emax is 35 to 75%. With `Cc1ccc(O)c(-c2cc(-c3ccc(F)c(Cl)c3)n[nH]2)c1` [IA-51], the Emax lay within 35 to 75%. The value for `O=[N+]([O-])c1ccccc1-c1cc(-c2cc(Cl)ccc2O)n[nH]1` [IA-52] was more than 75%.

With `Cc1ccc(O)c(-c2cc(-c3cccc(C)c3C)n[nH]2)c1` [IA-53], the Emax is 35 to 75%. For `Oc1ccc(-c2nnn[nH]2)cc1-c1cc(-c2ccccc2)n[nH]1` [IA-54], the Emax is 35 to 75%. The value for `COc1ccc(O)c(-c2cc(-c3ccccc3Cl)[nH]n2)c1` [IA-55] was 35 to 75%; that for `Cc1ccc(O)c(-c2cc(-c3c(F)ccc(C)c3F)n[nH]2)c1` [IA-56] was 35 to 75%; that for `Cc1ccc(-c2cc(-c3ccccc3Cl)[nH]n2)c(O)c1` [IA-58] was 35 to 75%. The value for `Cc1ccc(-c2cc(-c3cc(C)ccc3O)n[nH]2)cc1` [IA-59] was 35 to 75%; that for `COc1ccc(O)c(-c2cc(-c3ccccc3C)[nH]n2)c1` [IA-62] was 35 to 75%; that for `Cc1ccc(-c2cc(-c3ccc(F)cc3)[nH]n2)c(O)c1` [IA-63] was less than 35%.

For the compound `Cc1ccc(O)c(-c2cc(-c3cc(C(F)(F)F)nn3-c3ccc([N+](=O)[O-])cc3)n[nH]2)c1` [IA-65], the Emax was in the range of 35 to 75%. Take `COc1cccc(-c2cc(-c3cc(C)ccc3O)[nH]n2)c1` [IA-66]: the Emax was 35 to 75%.

As to `Oc1ccccc1-c1cc(-c2ccccc2Cl)[nH]n1` [IA-68], the Emax lay within 35 to 75%. `Oc1cc(F)ccc1-c1cc(-c2ccccc2)[nH]n1` [IA-70]: the Emax fell in the range of 35 to 75%.

Take `Cc1ccc(O)c(-c2cc(C3CCCCC3)n[nH]2)c1` [IA-71]: the Emax is 35 to 75%.

On to `COc1ccc(-c2cc(-c3cc(C)ccc3O)[nH]n2)cc1C(F)(F)F` [IA-72], for which the Emax fell in the range of 35 to 75%. With `Cc1ccc(O)c(-c2cc(-c3cccc(C(F)(F)F)c3C)n[nH]2)c1` [IA-74], the Emax lay in the range of 35 to 75%. With `Cc1ccc(O)c(-c2cc(-c3ccc(-c4ccc(S(C)(=O)=O)cc4)o3)n[nH]2)c1` [IA-76], the Emax lay in the range of 35 to 75%. For the compound `COc1ccc(O)c(-c2cc(-c3cccnc3Oc3ccccc3)[nH]n2)c1` [IA-77], the Emax lay within 35 to 75%. As for `Oc1ccccc1-c1cc(-c2c(F)cccc2F)n[nH]1` [IA-78], the Emax was in the range of 35 to 75%. For `Cc1ccc(O)c(-c2cc(-c3ccccc3SC(F)F)n[nH]2)c1` [IA-79], the Emax is less than 35%.

For the compound `CCOc1ccccc1-c1cc(-c2cc(C)ccc2O)[nH]n1` [IA-80], the Emax was 35 to 75%. Regarding `Oc1ccccc1-c1cc(-c2cccc(F)c2)[nH]n1` [IA-81], the Emax lay in the range of 35 to 75%. As to `Cc1ccc(-c2cc(-c3ccc(C)cc3O)n[nH]2)cc1` [IA-82], the Emax lay within 35 to 75%.
